In patent publication US4918083A, “4,5 Dihydroimidazole compounds which have useful pharmaceutical utility” (Beecham Group p.l.c., priority 1986, dated 1990):
pKi: −log10 of the molar value. Structures can show the parent of a compound that is named as a salt. Where two headings read alike, the source gives them in different places.

Columns and labels:
blood glucose = assay: Reversal of Adrenaline-Exacerbated Glucose Intolerance in Mice; format: in vivo, CFLP female mice; conditions: Mus musculus, 2 h, oral gavage, glucose 1 g/kg and adrenaline 300 μg/kg s.c. 30 min later, 0-120 min, vs water dosed control, read-out: % Reduction in area under Blood Glucose curve; for inhibition in vivo at 20 µmol/kg: 20 μmol/kg
Procedure: (A) Reversal of Adrenaline-Exacerbated Glucose Intolerance in Mice
CFLP female mice of about 25 g were fasted for 24 hours prior to receiving water (10 ml/kg) or compounds by oral gavage. Thirty minutes later, glucose (1 g/kg) and adrenaline (300 μg/kg) were injected subcutaneously. Blood samples for glucose analysis were taken serially from the tail of each mouse at 0, 30, 60 90 and 120 minutes after dosing glucose and the results are expressed below as the percentage reduction in the area under the blood glucose curve; the compound treated groups being compared to the water dosed control group. Six mice were used in each treatment group.

α2 -Adrenoceptor = target: T1, α2 -Adrenoceptor (Homo sapiens, UniProt P08913); assay: α2-Adrenoceptor Binding ([3H] Rauwolscine, human platelet membranes)
T1 construct: Human platelet membranes; from tissue; host or cells: human platelet membranes
T1 sequence (P08913 1-465): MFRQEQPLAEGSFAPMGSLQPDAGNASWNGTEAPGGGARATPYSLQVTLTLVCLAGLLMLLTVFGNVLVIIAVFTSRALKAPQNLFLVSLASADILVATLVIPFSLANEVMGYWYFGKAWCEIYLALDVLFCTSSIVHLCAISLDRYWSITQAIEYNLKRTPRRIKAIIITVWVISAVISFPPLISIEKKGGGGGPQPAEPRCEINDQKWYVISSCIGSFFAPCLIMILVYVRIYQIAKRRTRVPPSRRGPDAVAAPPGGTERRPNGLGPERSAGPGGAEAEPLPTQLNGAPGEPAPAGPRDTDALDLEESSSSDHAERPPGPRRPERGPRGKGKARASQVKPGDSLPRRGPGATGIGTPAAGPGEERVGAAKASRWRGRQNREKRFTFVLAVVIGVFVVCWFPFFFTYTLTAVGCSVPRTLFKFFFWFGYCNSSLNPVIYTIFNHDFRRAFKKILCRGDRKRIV
Procedure: (B) α2 -Adrenoceptor Binding
Human platelet membranes were incubated with [^3 H] Rauwolscine (0.5-1.0 nM) for 30 minutes at 30° C. with varying concentrates of the drug (0.1-10,000 nM). The binding assay was stopped by filtering and rinsing on GF/B glass fibre filters.

[1] = human platelet membranes, [3H] Rauwolscine 0.5-1.0 nM, 30 minutes at 30° C., read-out: Binding Affinity Ki

SMILES | inhibition in vivo at 20 µmol/kg (blood glucose) | pKi (α2 -Adrenoceptor) | pKi (α2 -Adrenoceptor; [1]) | inhibition in vivo at 10 µmol/kg (blood glucose; 10 μmol/kg) | inhibition in vivo at 5 µmol/kg (blood glucose; 5 μmol/kg)
CC1c2ccccc2CN1CC1=NCCN1 (stereo not drawn) [Example 1, 2-[2H-(1-Methyl-1,3-dihydroisoindole)methyl]-4,5-dihydroimidazole] | 34% | 8.77 |  |  | 
Fc1ccc(C2c3ccccc3CN2CC2=NCCN2)cc1 (stereo not drawn) [Example 8, 2-[2H-(1-(4-Fluorophenyl)-1,3-dihydroisoindole)methyl]-4,5-dihydroimidazole] | 21% |  | 8.57 |  | 
CC1c2ccc(Cl)cc2CN1CC1=NCCN1 (stereo not drawn) [Example 3, 2-[2H-(5-Chloro-1-methyl-1,3-dihydroisoindole)methyl]-4,5-dihydroimidazole dihydrochloride] |  |  | 8.47 | 41% | 
CCC1c2ccccc2CN1CC1=NCCN1 (stereo not drawn) [Example 2, 2-[2H-(1-Ethyl-1,3-dihydroisoindole)methyl]-4,5-dihydroimidazole dihydrochloride] | 27% |  | 8.39 |  | 
CC(C)C1c2ccccc2CN1CC1=NCCN1 (stereo not drawn) [Example 10, 2-(2H-[1-(1-Methylethyl)-1,3-dihydroisoindole]methyl)-4,5-dihydroimidazole dihydrochloride hemihydrate] |  |  | 7.47 |  | 
CC1c2ccc(F)cc2CN1CC1=NCCN1 (stereo not drawn) [Example 5, 2[2H-(5-Fluoro-1-methyl-1,3-dihydroisoindole)methyl]-4,5-dihydroimidazole] |  |  | 9.10 |  | 20%
Clc1ccc(C2c3ccccc3CN2CC2=NCCN2)cc1 (stereo not drawn) [Example 6, 2-[2H-(1-(4-Chlorophenyl)-1,3-dihydroisoindole)methyl]-4,5-dihydroimidazole] | 15% |  | 8.44 |  | 
c1ccc(CC2c3ccccc3CN2CC2=NCCN2)cc1 (stereo not drawn) [Example 13, 2-[2H-(1-Benzyl-1,3-dihydroisoindole)methyl]-4,5-dihydroimidazole] | 16% |  | 7.40 |  | 
CC1c2cc(Cl)ccc2CN1CC1=NCCN1 (stereo not drawn) [Example 4, 2-[2H-(6-Chloro-1-methyl-1,3-dihydroisoindole)methyl]-4,5-dihydroimidazole] | 27% |  | 8.19 |  | 
Clc1cccc(C2c3ccccc3CN2CC2=NCCN2)c1 (stereo not drawn) [Example 7] | 22% |  | 8.74 |  | 
COc1ccc(C2c3ccccc3CN2CC2=NCCN2)cc1 (stereo not drawn) [Example 12, 2-[2H-(1-(4-Methoxyphenyl)-1,3-dihydroisoindole)methyl]-4,5-dihydroimidazole] | 34% |  | 8.70 |  | 
c1ccc(C2c3ccccc3CN2CC2=NCCN2)cc1 (stereo not drawn) [Example 9, 2-[2H-(1-Phenyl-1,3-dihydroisoindole)methyl]-4,5-dihydroimidazole] | 31% |  | 8.16 |  | 
Cc1ccc(C2c3ccccc3CN2CC2=NCCN2)cc1 (stereo not drawn) [Example 11, 2-[2H-(1-(4-Methylphenyl)-1,3-dihydroisoindole)methyl]-4,5-dihydroimidazole] |  |  | 7.60 |  | 
